# Test results reported in PubChem BioAssay (NCI).
#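 Method: 48-hour compound exposure of cells in 96-well plates, five concentrations, linear interpolation of endpoints. At the GI50, growth is halved. TGI is the concentration that stops growth completely.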
# Tests used:
# Assay in all cases: inhibition of tumour cell growth, NCI panel, 48 h
# K-562 leukemia = system: K-562 leukemia
# OVCAR-5 ovarian = system: OVCAR-5 ovarian
# BT-549 breast = system: BT-549 breast
# NCI/ADR-RES ovarian = system: NCI/ADR-RES ovarian
# COLO 205 colon = system: COLO 205 colon
# UO-31 renal = system: UO-31 renal
# UACC-62 melanoma = system: UACC-62 melanoma
# SF-268 CNS = system: SF-268 CNS
# RXF 393 renal = system: RXF 393 renal
# A549 NSCLC = system: A549 NSCLC
# TK-10 renal = system: TK-10 renal
# OVCAR-4 ovarian = system: OVCAR-4 ovarian
# NCI-H23 lung = system: NCI-H23 lung
# SR leukemia = system: SR leukemia
# HCC-2998 colon = system: HCC-2998 colon
# HOP-62 NSCLC = system: HOP-62 NSCLC
# HCT-15 colon = system: HCT-15 colon
# SK-MEL-5 melanoma = system: SK-MEL-5 melanoma
# ACHN renal = system: ACHN renal
# HCT-116 colon = system: HCT-116 colon
# CCRF-CEM leukemia = system: CCRF-CEM leukemia
# SNB-19 CNS = system: SNB-19 CNS
# HL-60(TB) leukemia = system: HL-60(TB) leukemia
# SK-MEL-28 melanoma = system: SK-MEL-28 melanoma
# RPMI-8226 leukemia = system: RPMI-8226 leukemia
# A498 renal = system: A498 renal
# LOX IMVI melanoma = system: LOX IMVI melanoma
# SNB-75 CNS = system: SNB-75 CNS
# SW-620 colon = system: SW-620 colon
# CAKI-1 renal = system: CAKI-1 renal
# HT29 colon = system: HT29 colon
# IGROV1 ovarian = system: IGROV1 ovarian
# PC-3 prostate = system: PC-3 prostate
# UACC-257 melanoma = system: UACC-257 melanoma
# NCI-H226 lung = system: NCI-H226 lung
# OVCAR-3 ovarian = system: OVCAR-3 ovarian
# HOP-92 NSCLC = system: HOP-92 NSCLC
# HS 578T breast = system: HS 578T breast
# M14 melanoma = system: M14 melanoma
# KM12 colon = system: KM12 colon
# EKVX NSCLC = system: EKVX NSCLC
# T-47D breast = system: T-47D breast
# DU-145 prostate = system: DU-145 prostate
# SF-295 CNS = system: SF-295 CNS
# MDA-MB-435 = system: MDA-MB-435
# MOLT-4 leukemia = system: MOLT-4 leukemia
# OVCAR-8 ovarian = system: OVCAR-8 ovarian
# SN12C renal = system: SN12C renal
# NCI-H460 lung = system: NCI-H460 lung
# MDA-MB-231 breast = system: MDA-MB-231 breast
# SF-539 CNS = system: SF-539 CNS
# 786-0 renal = system: 786-0 renal
# NCI-H522 lung = system: NCI-H522 lung
# MCF7 breast = system: MCF7 breast
# U251 CNS = system: U251 CNS
# SK-MEL-2 melanoma = system: SK-MEL-2 melanoma
# SK-OV-3 ovarian = system: SK-OV-3 ovarian
structure (smiles),measurement,setting,value
Cc1ccc(C2C3Cc4ccccc4C3=NN2c2ccc(S(=O)(=O)NC(=O)NC3CCCCC3)cc2)cc1 (centres undefined),GI50,K-562 leukemia,11.5 µM
same,TGI,K-562 leukemia,52.3 µM
same,GI50,OVCAR-5 ovarian,27.3 µM
same,TGI,OVCAR-5 ovarian,55.7 µM
same,GI50,BT-549 breast,18 µM
same,TGI,BT-549 breast,42.9 µM
same,GI50,NCI/ADR-RES ovarian,13.4 µM
same,TGI,NCI/ADR-RES ovarian,35.1 µM
same,GI50,COLO 205 colon,14.7 µM
same,TGI,COLO 205 colon,33.1 µM
same,GI50,UO-31 renal,11 µM
same,TGI,UO-31 renal,26.1 µM
same,GI50,UACC-62 melanoma,12.7 µM
same,TGI,UACC-62 melanoma,28.6 µM
same,GI50,SF-268 CNS,25.3 µM
same,TGI,SF-268 CNS,> 100 µM
same,GI50,RXF 393 renal,18.7 µM
same,TGI,RXF 393 renal,54.5 µM
same,GI50,A549 NSCLC,12 µM
same,TGI,A549 NSCLC,27.5 µM
same,GI50,TK-10 renal,11.7 µM
same,TGI,TK-10 renal,28.4 µM
same,GI50,OVCAR-4 ovarian,16.6 µM
same,TGI,OVCAR-4 ovarian,39.2 µM
same,GI50,NCI-H23 lung,15.2 µM
same,TGI,NCI-H23 lung,37.1 µM
same,GI50,SR leukemia,6.25 µM
same,TGI,SR leukemia,32.1 µM
same,GI50,HCC-2998 colon,12.6 µM
same,TGI,HCC-2998 colon,28.6 µM
same,GI50,HOP-62 NSCLC,45.7 µM
same,TGI,HOP-62 NSCLC,> 100 µM
same,GI50,HCT-15 colon,19.4 µM
same,TGI,HCT-15 colon,76.7 µM
same,GI50,SK-MEL-5 melanoma,14.5 µM
same,TGI,SK-MEL-5 melanoma,30.3 µM
same,GI50,ACHN renal,14.4 µM
same,TGI,ACHN renal,28.5 µM
same,GI50,HCT-116 colon,15.5 µM
same,TGI,HCT-116 colon,> 100 µM
same,GI50,CCRF-CEM leukemia,8.33 µM
same,TGI,CCRF-CEM leukemia,76.4 µM
same,GI50,SNB-19 CNS,21.3 µM
same,TGI,SNB-19 CNS,64 µM
same,GI50,HL-60(TB) leukemia,22.9 µM
same,TGI,HL-60(TB) leukemia,59.7 µM
same,GI50,SK-MEL-28 melanoma,19.9 µM
same,TGI,SK-MEL-28 melanoma,38 µM
same,GI50,RPMI-8226 leukemia,5.44 µM
same,TGI,RPMI-8226 leukemia,40.8 µM
same,GI50,A498 renal,22.4 µM
same,TGI,A498 renal,39.6 µM
same,GI50,LOX IMVI melanoma,17.8 µM
same,TGI,LOX IMVI melanoma,44.2 µM
same,GI50,SNB-75 CNS,44 µM
same,TGI,SNB-75 CNS,> 100 µM
same,GI50,SW-620 colon,16.6 µM
same,TGI,SW-620 colon,40.1 µM
same,GI50,CAKI-1 renal,16 µM
same,TGI,CAKI-1 renal,42.1 µM
same,GI50,HT29 colon,24.5 µM
same,TGI,HT29 colon,> 100 µM
same,GI50,IGROV1 ovarian,5.75 µM
same,TGI,IGROV1 ovarian,24.5 µM
same,GI50,PC-3 prostate,9.66 µM
same,TGI,PC-3 prostate,26.2 µM
same,GI50,UACC-257 melanoma,20.2 µM
same,TGI,UACC-257 melanoma,39.7 µM
same,GI50,NCI-H226 lung,21.2 µM
same,TGI,NCI-H226 lung,54.6 µM
same,GI50,OVCAR-3 ovarian,15 µM
same,TGI,OVCAR-3 ovarian,37.1 µM
same,GI50,HOP-92 NSCLC,11.6 µM
same,TGI,HOP-92 NSCLC,27.6 µM
same,GI50,HS 578T breast,23.6 µM
same,TGI,HS 578T breast,62.7 µM
same,GI50,M14 melanoma,33.5 µM
same,TGI,M14 melanoma,> 100 µM
same,GI50,KM12 colon,11.3 µM
same,TGI,KM12 colon,39.1 µM
same,GI50,EKVX NSCLC,20.2 µM
same,TGI,EKVX NSCLC,67.1 µM
same,GI50,T-47D breast,32.5 µM
same,TGI,T-47D breast,> 100 µM
same,GI50,DU-145 prostate,23.1 µM
same,TGI,DU-145 prostate,78.9 µM
same,GI50,SF-295 CNS,17.9 µM
same,TGI,SF-295 CNS,54.2 µM
same,GI50,MDA-MB-435,14.6 µM
same,TGI,MDA-MB-435,41.3 µM
same,GI50,MOLT-4 leukemia,7.69 µM
same,TGI,MOLT-4 leukemia,> 100 µM
same,GI50,OVCAR-8 ovarian,17.4 µM
same,TGI,OVCAR-8 ovarian,43.6 µM
same,GI50,SN12C renal,16.6 µM
same,TGI,SN12C renal,33.1 µM
same,GI50,NCI-H460 lung,21.6 µM
same,TGI,NCI-H460 lung,> 100 µM
same,GI50,MDA-MB-231 breast,28.2 µM
same,TGI,MDA-MB-231 breast,> 100 µM
same,GI50,SF-539 CNS,20.2 µM
same,TGI,SF-539 CNS,40.7 µM
same,GI50,786-0 renal,28.6 µM
same,TGI,786-0 renal,> 100 µM
same,GI50,NCI-H522 lung,5.92 µM
same,TGI,NCI-H522 lung,23.5 µM
same,GI50,MCF7 breast,13.5 µM
same,TGI,MCF7 breast,> 100 µM
same,GI50,U251 CNS,13.2 µM
same,TGI,U251 CNS,30.4 µM
same,GI50,SK-MEL-2 melanoma,18.6 µM
same,TGI,SK-MEL-2 melanoma,38.6 µM
same,GI50,SK-OV-3 ovarian,20.4 µM
same,TGI,SK-OV-3 ovarian,61.3 µM
